# Where two headings read alike, the source gives them in different places. Where a SMILES comes first, the peptide text is derived from it. Bridges are numbered along the chain shown (N, C = ends). [ ]: non-standard residue; d: D form. The star is where a group is joined. hPhe(3-Cl-4-CF3) = N[C@@H](CCc1ccc(C(F)(F)F)c(Cl)c1)C(=O)O; NPrPhe(4-CF3) = CCCN[C@@H](Cc1ccc(C(F)(F)F)cc1)C(=O)O; NMeGly(cPent) = CN[C@H](C(=O)O)C1CCCC1; NMeD = CN[C@@H](CC(=O)O)C(=O)O; NMeL = CN[C@@H](CC(C)C)C(=O)O; Morpholide = C1CN(*)CCO1; Ac5c = NC1(C(=O)O)CCCC1; Aze = O=C(O)[C@@H]1CCN1; Sar = CNCC(=O)O
# Experiments:
# [1] = target: GDP-bound KRAS wild-type protein (Homo sapiens, UniProt P01116); assay: Binding to KRAS by surface plasmon resonance (SPR), Single Cycle Kinetics
# [2] = target: GDP-bound HRAS wild-type protein (Homo sapiens, UniProt P01112); assay: Binding to HRAS by surface plasmon resonance (SPR), Single Cycle Kinetics; conditions: for HRAS/KRAS (ratio of KD value with respect to GDP-bound HRAS wild-type protein to KD value with respect to KRAS): SPR KD ratio HRAS/KRAS, class symbols
# [3] = tested on: human lung cancer strain NCI-H441;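 also: cell proliferation inhibition after four days measured by CellTiter-Glo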
# [4] = target: GDP-bound NRAS wild-type protein (Homo sapiens, UniProt P01111); assay: Binding to NRAS by surface plasmon resonance (SPR), Single Cycle Kinetics; conditions: for NRAS/KRAS (ratio of KD value with respect to GDP-bound NRAS wild-type protein to KD value with respect to KRAS): SPR KD ratio NRAS/KRAS, class symbols
# [5] = SPR Single Cycle Kinetics, GDP-bound KRAS wild-type protein, 1:1 binding model, read-out: KRAS KD
# [6] = SPR, Single Cycle Kinetics, GDP-bound KRAS wild-type protein, read-out: KRAS KD
# [7] = SPR, GDP-bound HRAS wild-type protein vs GDP-bound KRAS wild-type protein
# [8] = SPR, GDP-bound NRAS wild-type protein vs GDP-bound KRAS wild-type protein
# [9] = SPR, Single Cycle Kinetics, 1:1 binding model, GDP-bound KRAS wild-type protein, read-out: KRAS KD
# [10] = SPR, GDP-bound HRAS wild-type protein vs GDP-bound KRAS wild-type protein, KD ratio class
# [11] = SPR, GDP-bound NRAS wild-type protein vs GDP-bound KRAS wild-type protein, KD ratio class
# GDP-bound HRAS wild-type protein, sequence (P01112 whole entry): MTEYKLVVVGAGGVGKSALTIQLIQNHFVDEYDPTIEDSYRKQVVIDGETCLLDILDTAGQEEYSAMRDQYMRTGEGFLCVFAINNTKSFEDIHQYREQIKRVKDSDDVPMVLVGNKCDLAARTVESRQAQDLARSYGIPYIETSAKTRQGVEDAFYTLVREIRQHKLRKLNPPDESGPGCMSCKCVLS
# GDP-bound KRAS wild-type protein, sequence (P01116 whole entry): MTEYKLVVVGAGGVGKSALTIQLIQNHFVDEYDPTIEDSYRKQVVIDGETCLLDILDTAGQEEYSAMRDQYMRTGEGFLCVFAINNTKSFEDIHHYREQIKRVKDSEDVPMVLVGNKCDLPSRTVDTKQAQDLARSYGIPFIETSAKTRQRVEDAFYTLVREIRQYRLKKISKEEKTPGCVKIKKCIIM
# GDP-bound NRAS wild-type protein, sequence (P01111 whole entry): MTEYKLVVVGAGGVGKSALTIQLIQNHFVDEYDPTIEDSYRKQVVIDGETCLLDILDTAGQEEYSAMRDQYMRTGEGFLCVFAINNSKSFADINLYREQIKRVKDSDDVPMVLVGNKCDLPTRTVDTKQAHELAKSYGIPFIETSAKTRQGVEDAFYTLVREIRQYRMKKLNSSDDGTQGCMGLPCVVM
"Kd [1, 5]",IC50 [3],"Kd [1, 9]",SMILES,"HRAS/KRAS (ratio of KD value for HRAS to KD value for KRAS) [2, 7]","NRAS/KRAS (ratio of KD value for NRAS to KD value for KRAS) [4, 8]","HRAS/KRAS (ratio of KD value for HRAS to KD value for KRAS) [2, 10]","NRAS/KRAS (ratio of KD value for NRAS to KD value for KRAS) [4, 11]",other results
0.27 nM,12.1 nM,–,CCC[C@H]1C(=O)N[C@@H]([C@@H](C)CC)C(=O)N(C2CC2)CC(=O)N(C)[C@H]2C/C=C\CCN(C2=O)[C@@H](Cc2ccc(C)cc2)C(=O)N(C)CC(=O)N[C@@H](CCc2cc(F)c(C(F)(F)F)c(F)c2)C(=O)N2C[C@H](OC3CCC3)C[C@H]2C(=O)NC2(CC(C)(C)C2)C(=O)N(C)[C@@H](C2CCCC2)C(=O)N(C)[C@H](C(=O)N(C)C)CC(=O)N1C [PP2614],–,–,–,–,HRAS/KRAS (ratio of KD value with respect to GDP-bound HRAS wild-type protein to KD value with respect to KRAS) [2]: A (a compound having 10 or more and less than 20 is denoted as A); NRAS/KRAS (ratio of KD value with respect to GDP-bound NRAS wild-type protein to KD value with respect to KRAS) [4]: A (a compound having 10 or more and less than 20 is denoted as A)
–,210 nM,–,CCC[C@H]1C(=O)N[C@@H](CC(C)C)C(=O)N(CCOC)CC(=O)N(C)[C@H]2C/C=C\CCN(C2=O)[C@@H](Cc2ccc(C)cc2)C(=O)N(C)CC(=O)N[C@@H](CCc2cc(F)c(C(F)(F)F)c(F)c2)C(=O)N2C[C@H](OCC)C[C@H]2C(=O)NC2(CC(C)(C)C2)C(=O)N(C)[C@@H](C2CCCC2)C(=O)N(C)[C@H](C(=O)N(C)C)CC(=O)N1C [PP2520],A (a compound having 10 or more and less than 20 is denoted as A),A (a compound having 10 or more and less than 20 is denoted as A),–,–,"Kd [1, 6]: 3.3 nM"
–,2.3 nM,0.032 nM,"CCCOC[C@H]1C(=O)N[C@@H]([C@@H](C)CC)C(=O)N(C)CC(=O)N(C)[C@H]2C/C=C\CCN(C2=O)[C@@H](Cc2ccc(C(F)(F)F)cc2)C(=O)N(C)CC(=O)N[C@@H](CCc2cc(F)c(C(F)(F)F)c(F)c2)C(=O)N2C[C@H](OCC)C[C@H]2C(=O)NC2(CC(C)(C)C2)C(=O)N(C)[C@@H](C2CCCC2)C(=O)N(C)[C@H](C(=O)N(C)C)CC(=O)N1C [PP1398, (2S,8S,12R,14S,20S,23S,27S,30S,36S,38Z)-20-cyclopentyl-8-[2-[3,5-difluoro-4-(trifluoromethyl)phenyl]ethyl]-12-ethoxy-N,N,3′,3′,4,19,22,26,32,35-decamethyl-30-[(1S)-1-methylpropyl]-3,6,9,15,18,21,25,28,31,34,42-undecaoxo-27-(propoxymethyl)-2-[[4-(trifluoromethyl)phenyl]methyl]spiro[1,4,7,10,16,19,22,26,29,32,35-undecazatricyclo[34.5.1.0^10,14]dotetracont-38-ene-17,1′-cyclobutane]-23-carboxamide]",–,–,A (a compound having 10 or more and less than 20 is denoted as A),A (a compound having 10 or more and less than 20 is denoted as A),–
–,26.3 nM,0.23 nM,CCO[C@@H]1C[C@H]2C(=O)NC3(CCC3)C(=O)N(C)[C@@H](C3CCCC3)C(=O)N(C)[C@H](C(=O)N3CCOCC3)CC(=O)N(C)[C@@H](CC3CCC3)C(=O)N[C@@H]([C@@H](C)CC)C(=O)N(C)CC(=O)N(C)[C@H]3C/C=C\CCN(C3=O)[C@@H](Cc3ccc(C)cc3)C(=O)N(C)CC(=O)N[C@@H](CCc3cc(F)c(C(F)(F)F)c(F)c3)C(=O)N2C1 [PP1424],–,–,A (a compound having 10 or more and less than 20 is denoted as A),A (a compound having 10 or more and less than 20 is denoted as A),–
–,–,–,CC[C@H](C)[C@@H]1NC(=O)[C@@H]2CCCCc3ccc(cc3)C[C@@H](C(=O)N(C)CC(=O)N[C@@H](CCc3ccc(C(F)(F)F)c(OC)c3)C(=O)N3CC4(CC4)C[C@H]3C(=O)NC3(CC(C)(C)C3)C(=O)N(C)[C@@H](C3CCCC3)C(=O)N(C)[C@H](C(=O)N(C)CC)CC(=O)N2C)N2CC/C=C\C[C@@H](C2=O)N(C)C(=O)CN(C)C1=O [PP3081],B (a compound having 3 or more and less than 10 is denoted as B),A (a compound having 10 or more and less than 20 is denoted as A),–,–,"Kd ([1]; SPR, Single Cycle Kinetics, 1:1 binding model, read-out: KD value with respect to GDP-bound KRAS wild-type protein): 0.068 nM; ratio of the KD value with respect to GDP-bound HRAS wild-type protein to the KD value with respect to KRAS ([2]; SPR, KD(HRAS)/KD(KRAS)): B (a compound having 3 or more and less than 10 is denoted as B); IC50 ([3]; read-out: NCI-H441 cell proliferation inhibitory activity, 50% proliferation inhibitory concentration (IC50 value), NCI-H441, four days, CellTiter-Glo): 1.9 nM; ratio of the KD value with respect to GDP-bound NRAS wild-type protein to the KD value with respect to KRAS ([4]; SPR, KD(NRAS)/KD(KRAS)): A (a compound having 10 or more and less than 20 is denoted as A)"
–,2.2 nM,–,CCCOC[C@H]1C(=O)N[C@@H]([C@@H](C)CC)C(=O)N(C2CC2)CC(=O)N(C)[C@H]2C/C=C\CCN(C2=O)[C@@H](CC2CCC(F)(F)CC2)C(=O)N(C)CC(=O)N[C@@H](CCc2ccc(C(F)(F)F)c(OC)c2)C(=O)N2C[C@@H](C)C[C@H]2C(=O)N(C)C2(CCC2)C(=O)N(C)[C@@H](C2CCCC2)C(=O)N(C)[C@H](C(=O)N(C)C)CC(=O)N1C [PP2379],A (a compound having 10 or more and less than 20 is denoted as A),A (a compound having 10 or more and less than 20 is denoted as A),–,–,"Kd [1, 6]: 0.76 nM"
2.5 nM,208 nM,–,CCO[C@@H]1C[C@H]2C(=O)NC3(CCC3)C(=O)N(C)[C@@H](C3CCCC3)C(=O)N(CCc3ccccc3)[C@H](C(=O)N3CCOCC3)CC(=O)N(C)[C@@H](CC(C)C)C(=O)N[C@@H]([C@@H](C)CC)C(=O)N(C)CC(=O)N(C)[C@H]3CCCCN(C3=O)[C@@H](Cc3ccc(C(F)(F)F)cc3)C(=O)N(C)CC(=O)N[C@@H](CCc3cc(F)c(C(F)(F)F)c(F)c3)C(=O)N2C1 [PP0652],–,–,–,–,"HRAS/KRAS (ratio of KD value with respect to HRAS to KD value with respect to KRAS) [2, 7]: B (a compound having 3 or more and less than 10 is denoted as B); NRAS/KRAS (ratio of KD value with respect to NRAS to KD value with respect to KRAS) [4, 8]: B (a compound having 3 or more and less than 10 is denoted as B)"
–,90.3 nM,0.51 nM,CCO[C@@H]1C[C@H]2C(=O)NC3(CCC3)C(=O)N(C)[C@@H](C3CCCC3)C(=O)N(C)[C@H](C(=O)N(C)C)CC(=O)N(C)[C@@H](CC(C)C)C(=O)N[C@@H]([C@@H](C)CC)C(=O)N(C)CC(=O)N(C)[C@H]3C/C=C\CCN(C3=O)[C@@H](Cc3ccc(F)cc3)C(=O)N(C)CC(=O)N[C@@H](CCc3cc(F)c(Cl)c(F)c3)C(=O)N2C1 [PP1483],–,–,B (a compound having 3 or more and less than 10 is denoted as B),A (a compound having 10 or more and less than 20 is denoted as A),–
0.19 nM,4.8 nM,–,CCCN1C(=O)[C@@H]2CCN2C(=O)[C@H](C)NC(=O)[C@H]([C@@H](C)CC)NC(=O)[C@H](CC(C)C)N(C)C(=O)C[C@@H](C(=O)N2CCOCC2)N(C)C(=O)[C@H](C2CCCC2)N(C)C(=O)C2(CCCC2)NC(=O)[C@@H]2CCCN2C(=O)[C@H](CCc2ccc(C(F)(F)F)c(Cl)c2)NC(=O)CN(C)C(=O)[C@@H]1Cc1ccc(C(F)(F)F)cc1 [PP0078] ([NMeL]IA[Aze][NPrPhe(4-CF3)][Sar][hPhe(3-Cl-4-CF3)]P[Ac5c][NMeGly(cPent)][NMeD]-Morpholide; lactam N-11),B (a compound having 3 or more and less than 10 is denoted as B),C (A compound having a KD ratio of 0.1 or more and less than 3 is denoted as C),–,–,–
–,20.2 nM,0.24 nM,CCO[C@@H]1C[C@H]2C(=O)NC3(CCC3)C(=O)N(C)[C@@H](C3CCCC3)C(=O)N(C)[C@H](C(=O)N3CCCC3)CC(=O)N(C)[C@@H](CC3CCC3)C(=O)N[C@@H]([C@@H](C)CC)C(=O)N(C)CC(=O)N(C)[C@H]3C/C=C\CCN(C3=O)[C@@H](Cc3ccc(C)cc3)C(=O)N(C)CC(=O)N[C@@H](CCc3cc(F)c(C(F)(F)F)c(F)c3)C(=O)N2C1 [PP1425],–,–,B (a compound having 3 or more and less than 10 is denoted as B),A (a compound having 10 or more and less than 20 is denoted as A),–
–,54.3 nM,0.33 nM,CCO[C@@H]1C[C@H]2C(=O)NC3(CCC3)C(=O)N(C)[C@@H](C3CCCC3)C(=O)N(C)[C@H](C(=O)N(C)C)CC(=O)N(C)[C@@H](CC(C)C)C(=O)N[C@@H]([C@@H](C)CC)C(=O)N(C)CC(=O)N(C)[C@H]3C/C=C\CCN(C3=O)[C@@H](Cc3ccc(C(F)(F)F)cc3)C(=O)N(C)CC(=O)N[C@@H](CCc3ccc4sccc4c3)C(=O)N2C1 [PP1257],–,–,A (a compound having 10 or more and less than 20 is denoted as A),A (a compound having 10 or more and less than 20 is denoted as A),–
0.49 nM,20 nM,–,CCC(CC)[C@H]1C(=O)N(C)[C@H](C(=O)N(C)C)CC(=O)N(C)[C@@H](COC)C(=O)N[C@@H]([C@@H](C)CC)C(=O)N(C)CC(=O)N(C)[C@H]2C/C=C\CCN(C2=O)[C@@H](Cc2ccc(C(F)(F)F)cc2)C(=O)N(C)CC(=O)N[C@@H](CCc2ccc(Cl)c(Cl)c2)C(=O)N2C[C@H](OC(C)C)C[C@H]2C(=O)NC2(CC(C)(C)C2)C(=O)N1C [PP2533],–,–,–,–,HRAS/KRAS (ratio of KD value with respect to GDP-bound HRAS wild-type protein to KD value with respect to KRAS) [2]: A (a compound having 10 or more and less than 20 is denoted as A); NRAS/KRAS (ratio of KD value with respect to GDP-bound NRAS wild-type protein to KD value with respect to KRAS) [4]: AA (a compound having 20 or more is denoted as AA)

# Source: patent publication US20240158446A1, “CYCLIC COMPOUND HAVING SELECTIVE INHIBITORY ACTION ON KRAS OVER HRAS AND NRAS” (CHUGAI SEIYAKU KABUSHIKI KAISHA, priority 2021, published 2024)
